The test system of this assay is M. tuberculosis Spec 210. Briefly: microbe, parasite or virus in culture. The assay is classed as cell-based, Mycobacterium tuberculosis. As to conditions: for MIC M. tuberculosis Spec 210 (multidrug-resistant): MABA; for MIC: Mycobacterium tuberculosis, SPEC210, read-out: MIC M. tuberculosis Spec 210 (multidrug-resistant), MABA.

Consider 25 compounds from article PMC10233829 (ACS Omega, 2023).

Values after ≈ are worked out from the molar mass of the structure shown.

With `O=C(O)c1cn(C2CC2)c2cc(N3CCN(CCCCC(=O)N4CCN(c5cc6c(cc5F)c(=O)c(C(=O)O)cn6C5CC5)CC4)CC3)c(F)cc2c1=O` [Compound 19, CP–Pentanoyl–CP Dimer], the “MIC M. tuberculosis Spec 210 (multidrug-resistant)” value stood at 1 µg/mL (≈ 1.34 µM) and the MIC lay in the range of 1 to 2 µg/mL (≈ 1.34 to 2.69 µM).

Regarding `O=C(O)c1cn(C2CC2)c2cc(N3CCN(CC(=O)N4CCN(c5cc6c(cc5F)c(=O)c(C(=O)O)cn6C5CC5)CC4)CC3)c(F)cc2c1=O` [Compound 17, CP–Acetyl–CP Dimer], the MIC was determined as 16 µg/mL (≈ 22.8 µM).

For the compound `[H]/N=C(/N)N[C@H]1[C@H](O)[C@@H](O)[C@H](O[C@@H]2O[C@@H](C)[C@](O)(C=O)[C@H]2O[C@@H]2O[C@@H](CO)[C@H](O)[C@@H](O)[C@@H]2NC)[C@@H](N/C(N)=N\[H])[C@@H]1O` [streptomycin (SM), streptomycin, reference compound], the MIC turned out to be 16 µg/mL (≈ 27.5 µM).

Take `C=CC(=O)N1CCN(c2cc3c(cc2F)c(=O)c(C(=O)O)cn3C2CC2)CC1` [Compound 1, 7-(4-Acryloyl-piperazin-1-yl)-1-cyclopropyl-6-fluoro-4-oxo-1,4-dihydro-quinoline-3-carboxylic Acid]: the “MIC M. tuberculosis Spec 210 (multidrug-resistant)” value was determined as 2 µg/mL (≈ 5.19 µM) and the MIC lay in the range of 1 to 2 µg/mL (≈ 2.59 to 5.19 µM).

With `O=C(O)c1cn(C2CC2)c2cc(N3CCN(C(=O)CCCCCl)CC3)c(F)cc2c1=O` [Compound 6, 7-[4-(5-Chloropentanoyl)-piperazin-1-yl]-1-cyclopropyl-6-fluoro-4-oxo-1,4-dihydro-quinoline-3-carboxylic Acid], the MIC was at most 0.25 µg/mL.

In the case of `O=C(O)c1cn(C2CC2)c2cc(N3CCN(C(=O)CCCBr)CC3)c(F)cc2c1=O` [Compound 10, 7-[4-(4-Bromobutyryl)-piperazin-1-yl]-1-cyclopropyl-6-fluoro-4-oxo-1,4-dihydro-quinoline-3-carboxylic Acid], the MIC was at most 0.25 µg/mL.

On to `O=C(O)c1cn(C2CC2)c2cc(N3CCN(C(=O)CBr)CC3)c(F)cc2c1=O` [Compound 8, 7-[4-(2-Bromoacetyl)-piperazin-1-yl]-1-cyclopropyl-6-fluoro-4-oxo-1,4-dihydro-quinoline-3-carboxylic Acid], for which the MIC worked out at 8 µg/mL (≈ 17.7 µM).

Take `O=C(O)c1cn(C2CC2)c2cc(N3CCN(CCCCCC(=O)N4CCN(c5cc6c(cc5F)c(=O)c(C(=O)O)cn6C5CC5)CC4)CC3)c(F)cc2c1=O` [Compound 20, CP–Hexanoyl–CP Dimer]: the MIC is 16 µg/mL (≈ 21.1 µM).

As to `O=C(O)c1cn(C2CC2)c2cc(N3CCN(C(=O)CCCC(F)(F)F)CC3)c(F)cc2c1=O` [Compound 16, 7-[4-(5,5,5-Trifluoropentanoyl)-piperazin-1-yl]-1-cyclopropyl-6-fluoro-4-oxo-1,4-dihydro-quinoline-3-carboxylic Acid], the MIC was 32 µg/mL (≈ 68.2 µM).

Consider `O=C(O)c1cn(C2CC2)c2cc(N3CCN(C(=O)CCCCCBr)CC3)c(F)cc2c1=O` [Compound 12, 7-[4-(6-Bromohexanoyl)-piperazin-1-yl]-1-cyclopropyl-6-fluoro-4-oxo-1,4-dihydro-quinoline-3-carboxylic Acid], for which the MIC was at most 0.25 µg/mL.

Turning to `O=C(O)c1cn(C2CC2)c2cc(N3CCN(C(=O)C4CC4)CC3)c(F)cc2c1=O` [Compound 2, 7-(4-Cyclopropanecarbonyl-piperazin-1-yl)-1-cyclopropyl-6-fluoro-4-oxo-1,4-dihydro-quinoline-3-carboxylic Acid], the MIC was at most 0.25 µg/mL.

Consider `O=C(O)c1cn(C2CC2)c2cc(N3CCN(C(=O)CC(F)(F)F)CC3)c(F)cc2c1=O` [Compound 14, 7-[4-(3,3,3-Trifluoropropionyl)-piperazin-1-yl]-1-cyclopropyl-6-fluoro-4-oxo-1,4-dihydro-quinoline-3-carboxylic Acid], for which the MIC came to 32 µg/mL (≈ 72.5 µM).

For the compound `CC[C@@H](CO)NCCN[C@@H](CC)CO` [ethambutol(EMB), ethambutol, reference compound], the MIC came out at 32 µg/mL (≈ 157 µM).

As to `O=C(O)c1cn(C2CC2)c2cc(N3CCN(C(=O)CCCl)CC3)c(F)cc2c1=O` [Compound 4, 7-[4-(3-Chloropropionyl)-piperazin-1-yl]-1-cyclopropyl-6-fluoro-4-oxo-1,4-dihydro-quinoline-3-carboxylic Acid], the “MIC M. tuberculosis Spec 210 (multidrug-resistant)” value was 2 µg/mL (≈ 4.74 µM) and the MIC was in the range of 1 to 2 µg/mL (≈ 2.37 to 4.74 µM).

For the compound `O=C(O)c1cn(C2CC2)c2cc(N3CCN(C(=O)CCC(F)(F)F)CC3)c(F)cc2c1=O` [Compound 15, 7-[4-(4,4,4-Trifluorobutyryl)-piperazin-1-yl]-1-cyclopropyl-6-fluoro-4-oxo-1,4-dihydro-quinoline-3-carboxylic Acid], the MIC was 32 µg/mL (≈ 70.3 µM).

For the compound `O=C(O)c1cn(C2CC2)c2cc(N3CCN(C(=O)CCBr)CC3)c(F)cc2c1=O` [Compound 9, 7-[4-(3-Bromopropionyl)-piperazin-1-yl]-1-cyclopropyl-6-fluoro-4-oxo-1,4-dihydro-quinoline-3-carboxylic Acid], the “MIC M. tuberculosis Spec 210 (multidrug-resistant)” value came to 1 µg/mL (≈ 2.14 µM) and the MIC lay in the range of 1 to 2 µg/mL (≈ 2.14 to 4.29 µM).

Take `O=C(O)c1cn(C2CC2)c2cc(N3CCN(C(=O)CCCCCCCCCCBr)CC3)c(F)cc2c1=O` [Compound 13, 7-[4-(11-Bromoundekanoyl)-piperazin-1-yl]-1-cyclopropyl-6-fluoro-4-oxo-1,4-dihydro-quinoline-3-carboxylic Acid]: the “MIC M. tuberculosis Spec 210 (multidrug-resistant)” value was 1 µg/mL (≈ 1.73 µM) and the MIC fell in the range of 1 to 2 µg/mL (≈ 1.73 to 3.46 µM).

For the compound `O=C(O)c1cn(C2CC2)c2cc(N3CCN(C(=O)CCCCl)CC3)c(F)cc2c1=O` [Compound 5, 7-[4-(4-Chlorobutyryl)-piperazin-1-yl]-1-cyclopropyl-6-fluoro-4-oxo-1,4-dihydro-quinoline-3-carboxylic Acid], the MIC is at most 0.25 µg/mL.

In the case of `O=C(O)c1cn(C2CC2)c2cc(N3CCN(CCCC(=O)N4CCN(c5cc6c(cc5F)c(=O)c(C(=O)O)cn6C5CC5)CC4)CC3)c(F)cc2c1=O` [Compound 18, CP–Butyryl–CP Dimer], the MIC stood at 4 µg/mL (≈ 5.47 µM).

In the case of `O=C(O)c1cn(C2CC2)c2cc(N3CCN(CCCCCCCCCCC(=O)N4CCN(c5cc6c(cc5F)c(=O)c(C(=O)O)cn6C5CC5)CC4)CC3)c(F)cc2c1=O` [Compound 21, CP–Undecanoyl–CP Dimer], the “MIC M. tuberculosis Spec 210 (multidrug-resistant)” value stood at 1 µg/mL (≈ 1.21 µM) and the MIC is 1 to 2 µg/mL (≈ 1.21 to 2.41 µM).

Consider `O=C(O)c1cn(C2CC2)c2cc(N3CCN(C(=O)CCl)CC3)c(F)cc2c1=O` [Compound 3, 7-[4-(2-Chloroacetyl)-piperazin-1-yl]-1-cyclopropyl-6-fluoro-4-oxo-1,4-dihydro-quinoline-3-carboxylic Acid], for which the “MIC M. tuberculosis Spec 210 (multidrug-resistant)” value was 2 µg/mL (≈ 4.9 µM) and the MIC was in the range of 1 to 2 µg/mL (≈ 2.45 to 4.9 µM).

Turning to `O=C(O)c1cn(C2CC2)c2cc(N3CCN(C(=O)CCCCBr)CC3)c(F)cc2c1=O` [Compound 11, 7-[4-(5-Bromopentanoyl)-piperazin-1-yl]-1-cyclopropyl-6-fluoro-4-oxo-1,4-dihydro-quinoline-3-carboxylic Acid], the MIC was at most 0.25 µg/mL.

Turning to `O=C(O)c1cn(C2CC2)c2cc(N3CCN(C(=O)CCCCCCl)CC3)c(F)cc2c1=O` [Compound 7, 7-[4-(6-Chlorohexanoyl)-piperazin-1-yl]-1-cyclopropyl-6-fluoro-4-oxo-1,4-dihydro-quinoline-3-carboxylic Acid], the MIC was at most 0.25 µg/mL.

As to `NNC(=O)c1ccncc1` [isoniazid (INH), isoniazid, reference compound], the MIC came to 16 µg/mL (≈ 117 µM).

`CO[C@H]1/C=C/O[C@@]2(C)Oc3c(C)c(O)c4c(O)c(c(/C=N/N5CCN(C)CC5)c(O)c4c3C2=O)NC(=O)/C(C)=C\C=C\[C@H](C)[C@H](O)[C@@H](C)[C@@H](O)[C@@H](C)[C@H](OC(C)=O)[C@@H]1C` [rifampicin (RMP), rifampicin, reference compound]: the MIC was determined as 32 µg/mL (≈ 38.9 µM).
